Source: patent publication US3961075A, “Ether-linked quaternary ammonium compositions” (Colgate-Palmolive Company, priority 1975, dated 1976)

What was measured:
Format in all cases: cell-based
S. aureus = test: standard test tube serial dilution test, S. aureus; settings: Staphylococcus aureus, broth serial dilution, read-out: Minimum Inhibitory Concentration
Description: (§1) The anti-microbial nature of the instant novel compounds was shown by a standard test tube serial dilution test in which an appropriate number of test tubes of broth containing decreasing concentrations of the test agent was innoculated with the test organism. After a suitable period of incubation, the tubes were examined for the presence or absence of growth. The activity of the test agent was the lowest concentration which inhibited the growth of the organism and is expressed as the minimal inhibitory concentration in ug/ml.

E. coli = test: standard test tube serial dilution test, E. coli; settings: Escherichia coli, broth serial dilution, read-out: Minimum Inhibitory Concentration
Description: as §1

P. ovale = test: standard test tube serial dilution test, P. ovale; settings: broth serial dilution, read-out: Minimum Inhibitory Concentration
Description: as §1

Str. mitis = test: standard test tube serial dilution test, Str. mitis; settings: Streptococcus mitis, broth serial dilution, read-out: Minimum Inhibitory Concentration
Description: as §1

A. niger = test: standard test tube serial dilution test, A. niger; settings: Aspergillus niger, broth serial dilution, read-out: Minimum Inhibitory Concentration
Description: as §1

C. albicans = test: standard test tube serial dilution test, C. albicans; settings: Candida albicans, broth serial dilution, read-out: Minimum Inhibitory Concentration
Description: as §1

T. mentagrophytes = test: standard test tube serial dilution test, T. mentagrophytes; settings: Trichophyton mentagrophytes, broth serial dilution, read-out: Minimum Inhibitory Concentration
Description: as §1

Ps. aeruginosa = test: standard test tube serial dilution test, Ps. aeruginosa; settings: Pseudomonas aeruginosa, broth serial dilution, read-out: Minimum Inhibitory Concentration
Description: as §1

## CCCCCCCCCCCC[N+](C)(C)CCOC12CC3CC(CC(C3)C1)C2 [C12 H25, 2-(1^1-adamantyloxy)ethyldimethyldodecyl ammonium bromide]
S. aureus
  MIC: 0.39 µg/mL
E. coli
  MIC: 12.5 µg/mL
P. ovale
  MIC: > 50 µg/mL
Str. mitis
  MIC: 0.19 µg/mL
A. niger
  MIC: 50 µg/mL
C. albicans
  MIC: 1.56 µg/mL
T. mentagrophytes
  MIC: 3.12 µg/mL
Ps. aeruginosa
  MIC: > 25 µg/mL

## CCCCCCCCCCCCCC[N+](C)(C)CCOC12CC3CC(CC(C3)C1)C2 [C14 H29, 2(1^1 -adamantyloxy)ethyldimethyltetradecylammonium bromide]
S. aureus
  MIC: 0.78 µg/mL
E. coli
  MIC: 12.5 µg/mL
P. ovale
  MIC: > 50 µg/mL
Str. mitis
  MIC: 0.39 µg/mL
A. niger
  MIC: 50 µg/mL
C. albicans
  MIC: 1.56 µg/mL
T. mentagrophytes
  MIC: 6.25 µg/mL
Ps. aeruginosa
  MIC: > 25 µg/mL
